In PubChem BioAssay AID1963838 (Molecular Pharmacology Branch, DTP, NCI, 2024):

Test system: 855422-203-R-J1-PDC complex spheroid viability
Assay: Anticancer human tumor 855422-203-R-J1-PDC patient-derived bladder carcinoma cell line growth inhibition [POLQ]
Details: for IC50: curve of first compound; for viability, T/C: stronger effect = lower value
Summary of the method: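 Patient-derived tumour cells were co-cultured with HUVEC and mesenchymal stem cells as multicellular spheroids at 37 °C. They were treated with POLQ inhibitors (novobiocin, ART-558, RP6685) alone or combined with other agents. Top concentrations were at or near clinical Cmax (otherwise 10 microM; SN-38 at 1 microM), decreasing in half-log steps.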

[1] = second compound 0.0316 µM, first compound 0.0316 µM
[2] = second compound 0.0316 µM, first compound 0.1 µM
[3] = second compound 0.0316 µM, first compound 0.316 µM
[4] = second compound 0.0316 µM, first compound 1 µM
[5] = second compound 0.1 µM, first compound 0.0316 µM
[6] = second compound 0.1 µM, first compound 0.1 µM
[7] = second compound 0.1 µM, first compound 0.316 µM
[8] = second compound 0.1 µM, first compound 1 µM
[9] = second compound 0.316 µM, first compound 0.0316 µM
[10] = second compound 0.316 µM, first compound 0.1 µM
[11] = second compound 0.316 µM, first compound 0.316 µM
[12] = second compound 0.316 µM, first compound 1 µM
[13] = second compound 1 µM, first compound 0.0316 µM
[14] = second compound 1 µM, first compound 0.1 µM
[15] = second compound 1 µM, first compound 0.316 µM
[16] = second compound 1 µM, first compound 1 µM
[17] = second compound 3.16 µM, first compound 0.0316 µM
[18] = second compound 3.16 µM, first compound 0.1 µM
[19] = second compound 3.16 µM, first compound 0.316 µM
[20] = second compound 3.16 µM, first compound 1 µM
[21] = second compound 10 µM, first compound 0.0316 µM
[22] = second compound 10 µM, first compound 0.1 µM
[23] = second compound 10 µM, first compound 0.316 µM
[24] = second compound 10 µM, first compound 1 µM
[25] = second compound 0.0316 µM, first compound 3.16 µM
[26] = second compound 0.0316 µM, first compound 10 µM
[27] = second compound 0.1 µM, first compound 3.16 µM
[28] = second compound 0.1 µM, first compound 10 µM
[29] = second compound 0.316 µM, first compound 3.16 µM
[30] = second compound 0.316 µM, first compound 10 µM
[31] = second compound 1 µM, first compound 3.16 µM
[32] = second compound 1 µM, first compound 10 µM
[33] = second compound 3.16 µM, first compound 3.16 µM
[34] = second compound 3.16 µM, first compound 10 µM
[35] = second compound 10 µM, first compound 3.16 µM
[36] = second compound 10 µM, first compound 10 µM
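Note: spheroids exposed to compounds for seven days before readout.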

## CCc1c2c(nc3ccc(O)cc13)-c1cc3c(c(=O)n1C2)COC(=O)[C@]3(O)CC + COC1C(OC(N)=O)C(O)C(Oc2ccc3c(O)c(NC(=O)c4ccc(O)c(CC=C(C)C)c4)c(=O)oc3c2C)OC1(C)C
Second compound 0.0316 µM
  IC50: < 3.16 nM
Second compound 0.1 µM
  IC50: < 3.16 nM
Second compound 0.316 µM
  IC50: < 3.16 nM
Second compound 1 µM
  IC50: < 3.16 nM
Second compound 3.16 µM
  IC50: < 3.16 nM
Second compound 10 µM
  IC50: < 3.16 nM
Second compound 0.0316 µM, first compound 0.00316 µM
  viability, T/C: 40.8%
Second compound 0.0316 µM, first compound 0.01 µM
  viability, T/C: 16.8%
[1]
  viability, T/C: 7.82%
[2]
  viability, T/C: 5.58%
[3]
  viability, T/C: 4.71%
[4]
  viability, T/C: 1.63%
Second compound 0.1 µM, first compound 0.00316 µM
  viability, T/C: 40.5%
Second compound 0.1 µM, first compound 0.01 µM
  viability, T/C: 14.3%
[5]
  viability, T/C: 8.6%
[6]
  viability, T/C: 6.16%
[7]
  viability, T/C: 3.09%
[8]
  viability, T/C: 1.68%
Second compound 0.316 µM, first compound 0.00316 µM
  viability, T/C: 42.7%
Second compound 0.316 µM, first compound 0.01 µM
  viability, T/C: 15.7%
[9]
  viability, T/C: 9.73%
[10]
  viability, T/C: 5.82%
[11]
  viability, T/C: 4.86%
[12]
  viability, T/C: 1.54%
Second compound 1 µM, first compound 0.00316 µM
  viability, T/C: 33.4%
Second compound 1 µM, first compound 0.01 µM
  viability, T/C: 14.5%
[13]
  viability, T/C: 9.49%
[14]
  viability, T/C: 5.81%
[15]
  viability, T/C: 3.09%
[16]
  viability, T/C: 2.46%
Second compound 3.16 µM, first compound 0.00316 µM
  viability, T/C: 26.4%
Second compound 3.16 µM, first compound 0.01 µM
  viability, T/C: 11.5%
[17]
  viability, T/C: 8.08%
[18]
  viability, T/C: 4.59%
[19]
  viability, T/C: 2.7%
[20]
  viability, T/C: 1.71%
Second compound 10 µM, first compound 0.00316 µM
  viability, T/C: 14.7%
Second compound 10 µM, first compound 0.01 µM
  viability, T/C: 11.2%
[21]
  viability, T/C: 7.82%
[22]
  viability, T/C: 6.39%
[23]
  viability, T/C: 3.19%
[24]
  viability, T/C: 1.43%

## CNCc1ccc(-c2[nH]c3cc(F)cc4c3c2CCNC4=O)cc1 + COC1C(OC(N)=O)C(O)C(Oc2ccc3c(O)c(NC(=O)c4ccc(O)c(CC=C(C)C)c4)c(=O)oc3c2C)OC1(C)C
Second compound 0.0316 µM
  IC50: > 10000 nM
Second compound 0.1 µM
  IC50: > 10000 nM
Second compound 0.316 µM
  IC50: > 10000 nM
Second compound 1 µM
  IC50: > 10000 nM
Second compound 3.16 µM
  IC50: > 10000 nM
Second compound 10 µM
  IC50: > 10000 nM
[1]
  viability, T/C: 93.5%
[2]
  viability, T/C: 104%
[3]
  viability, T/C: 125%
[4]
  viability, T/C: 106%
[25]
  viability, T/C: 107%
[26]
  viability, T/C: 105%
[5]
  viability, T/C: 110%
[6]
  viability, T/C: 108%
[7]
  viability, T/C: 98%
[8]
  viability, T/C: 109%
[27]
  viability, T/C: 100%
[28]
  viability, T/C: 110%
[9]
  viability, T/C: 91.3%
[10]
  viability, T/C: 97.8%
[11]
  viability, T/C: 99.5%
[12]
  viability, T/C: 104%
[29]
  viability, T/C: 105%
[30]
  viability, T/C: 118%
[13]
  viability, T/C: 104%
[14]
  viability, T/C: 107%
[15]
  viability, T/C: 110%
[16]
  viability, T/C: 107%
[31]
  viability, T/C: 117%
[32]
  viability, T/C: 104%
[17]
  viability, T/C: 106%
[18]
  viability, T/C: 92%
[19]
  viability, T/C: 112%
[20]
  viability, T/C: 109%
[33]
  viability, T/C: 104%
[34]
  viability, T/C: 109%
[21]
  viability, T/C: 110%
[22]
  viability, T/C: 101%
[23]
  viability, T/C: 111%
[24]
  viability, T/C: 106%
[35]
  viability, T/C: 93.2%
[36]
  viability, T/C: 97.4%

## O=c1[nH]cc(F)c(=O)[nH]1 + COC1C(OC(N)=O)C(O)C(Oc2ccc3c(O)c(NC(=O)c4ccc(O)c(CC=C(C)C)c4)c(=O)oc3c2C)OC1(C)C
Second compound 0.0316 µM
  IC50: 463 nM
Second compound 0.1 µM
  IC50: 403 nM
Second compound 0.316 µM
  IC50: 370 nM
Second compound 1 µM
  IC50: 489 nM
Second compound 3.16 µM
  IC50: 518 nM
Second compound 10 µM
  IC50: 431 nM
[1]
  viability, T/C: 101%
[2]
  viability, T/C: 119%
[3]
  viability, T/C: 59.9%
[4]
  viability, T/C: 40.1%
[25]
  viability, T/C: 25.9%
[26]
  viability, T/C: 23.6%
[5]
  viability, T/C: 107%
[6]
  viability, T/C: 107%
[7]
  viability, T/C: 55%
[8]
  viability, T/C: 34.5%
[27]
  viability, T/C: 28%
[28]
  viability, T/C: 22.3%
[9]
  viability, T/C: 107%
[10]
  viability, T/C: 114%
[11]
  viability, T/C: 53.5%
[12]
  viability, T/C: 35.1%
[29]
  viability, T/C: 26.3%
[30]
  viability, T/C: 23.6%
[13]
  viability, T/C: 118%
[14]
  viability, T/C: 100%
[15]
  viability, T/C: 59.2%
[16]
  viability, T/C: 34%
[31]
  viability, T/C: 26.7%
[32]
  viability, T/C: 21.5%
[17]
  viability, T/C: 98.8%
[18]
  viability, T/C: 93.4%
[19]
  viability, T/C: 58.4%
[20]
  viability, T/C: 37.5%
[33]
  viability, T/C: 28.2%
[34]
  viability, T/C: 22%
[21]
  viability, T/C: 117%
[22]
  viability, T/C: 101%
[23]
  viability, T/C: 54.7%
[24]
  viability, T/C: 35.3%
[35]
  viability, T/C: 26.2%
[36]
  viability, T/C: 23.4%
